From patent US9682928B2 (NeuroPro Therapeutics, Inc., priority 2009, dated 2017) come the findings set out here.

SMILES strings stand for the structures. “Also recorded” adds a separate entry of the source.

One assay relates to Rat. The assay can be described thus: Cortical spreading depression (rat), IP administration. It is filed as in vivo.
The nature of assay [1]: Diuresis in rat (urine volume, sodium and potassium excretion). To be noted: for Diuresis as measured by increased urine output and Na+/K+ excretion: rat, through 8 hours post-dose. The assay is classed as in vivo. How it is done: (§1) The animals were fasted overnight prior to dosing and had no access to drinking water prior to any pretreatment. Food and water were withheld through the terminal sample collection or for the first 6 hours of blood sample collection, where applicable. Prior to test article administration all animals were pretreated with a single IP dose of PBx. At approximately 5 to 6 minutes prior to dosing all animals received a single oral (PO) gavage dose of 0.9% Sodium Chloride for Injection, USP, at a dose volume of 15 mL/kg. The vehicle, DMSO, and the test articles, NTP-2024 and NTP-2006, were administered via a single IP dose at a dose volume of 1 mL/kg. Cumulative urine volume, sodium excretion, and potassium excretion graphs are illustrated in FIGS. 27, 28, and 29.
as §1, with “Animals” for “The animals”, “PBX.” for “PBx.”, “mL/g.” for “mL/kg.”, “compounds (e.g., NTP-2014)” for “articles, NTP-2024 and NTP-2006,”, “mL/kg.” for “mL/kg. Cumulative urine volume, sodium excretion, and potassium excretion graphs are illustrated in FIGS. 27, 28, and 29.”
as §1, with “Animals” for “The animals”, “0.15” for “15”, “FIG. 27 illustrates cumulative” for “Cumulative”, “volume.” for “volume, sodium excretion, and potassium excretion graphs are illustrated in FIGS. 27, 28, and 29.”
as §1, with “PBX.” for “PBx.”, “FIG. 28 illustrates cumulative” for “Cumulative urine volume,”, “excretion.” for “excretion, and potassium excretion graphs are illustrated in FIGS. 27, 28, and 29.”
as §1, with “PBX.” for “PBx.”, “FIG. 29 illustrates cumulative” for “Cumulative urine volume, sodium excretion, and”, “excretion.” for “excretion graphs are illustrated in FIGS. 27, 28, and 29.”

The test system of another assay is adult mice (C57/B16). The assay can be described thus: Mesial temporal lobe epilepsy model (mice), hippocampal discharges. To be noted: for Cumulative duration of hippocampal discharges / Number of hippocampal discharges: 50 mg/kg for NTP-2014 and NTP-2026, 150 mg/kg for NTP-2024, NTP-2006, NTP-1007, NTP-1003; for Suppression of discharges through 80 minutes post-dose: 25 and 50 mg/kg (NTP-2014), 50 mg/kg (NTP-2026); for Significant decrease in cumulative duration of and total number of hippocampal discharges: dose-response study, mice. The assay is classed as in vivo, mouse. How it is done: Antiepileptic protocol: Up to eight adult mice (C57/B16) are injected with kainate (1 nmol in 50 nl) and are implanted with a bipolar electrode in the dorsal hippocampus using stereotaxic techniques under general anesthesia. […] Drug conditions are counter-balanced, the animals being used as their own controls. Digital EEG recordings are performed in freely moving animals for 20 min pre-injection and 80 min post-injection. The effects of the injected compound are compared versus vehicle injections and reference period (pre-dose). Upon completion of the experiment, standard histological analysis are performed to verify electrode location, cell losses in CA1, CA3 and hilus, as well as dentate gyrus dispersion. Only animals with all characteristics of MTLE are used in data analysis. […] The results below are normalized to the pre-dose condition for each of the treatment group including DMSO and saline vehicle controls. Doses of test article compounds were 50 mg/kg for NTP-2014 and NTP-2026 and 150 mg/kg for NTP-2024, NTP-2006, NTP-1007, and NTP-1003. Therefore the bumetanide, furosemide, piretanide, azosemide, and torsemide esters and amide analogs described herein may be used in therapeutic methods to treat seizures.

In the case of `CCCCNc1cc(C(=O)O)cc(S(N)(=O)=O)c1Oc1ccccc1` [Bumetanide, reference compound], the “Decrease in CSD events” value with Rat (10 and 30 mg/kg, p~0.05) is “CSD events (~30%) at 10 and 30”. Moreover, the “Excretion of urine, sodium and potassium (FIG. 33)” value in assay [1] (bumetanide PO 30 mg/kg + PBx) was “substantial excretion”. The Diuresis in rat result in assay [1] (pre-treatment with inhibitor) is “diuresis evident”.

As for `CCCCN(CCCC)c1cc(C(=O)O)cc(S(N)(=O)=O)c1Oc1ccccc1` [NTP-2014, 3-Aminosulfonyl-5-N,N-dibutylamino-4-phenoxybenzoic acid], in the assay with Rat (10 mg/kg IP, p < 0.05), the “Change in CSD events” value is −38%. For the same molecule, the “Change in CSD events” value with Rat (50 mg/kg IP, p < 0.05) is recorded as −37%. Further, the “Change in CSD events” value in the assay on Rat (75 mg/kg IP, p < 0.05) is −47%. Besides, in assay [1] (NTP-2014 at 10, 50 or 100 mg/kg, PBx pretreated), the “Urine output, sodium excretion and potassium excretion (FIG. 33)” value was “does not differ appreciably from the vehicle control; also recorded: does not increase; also recorded: did not increase”. Besides, in assay [1], the “Diuresis as measured by increased urine output and Na+/K+ excretion” value was “No diuresis as measured by increased urine output and Na+/K+”. In addition, in the assay on adult mice (C57/B16), the “Cumulative duration of hippocampal discharges” value is recorded as “decreased”; the “Number of hippocampal discharges” value is given as “decreased”; the “Suppression of discharges through 80 minutes post-dose” value is 25 and 50 mg/kg, near complete; the “Significant decrease in cumulative duration of and total number of hippocampal discharges” value (“Significant decrease” for short) was “Dose-response relationship”.

`CCCCNc1cc(C(=O)NN2CCOCC2)cc(S(N)(=O)=O)c1Oc1ccccc1` [NTP-2024, N-Morpholinyl 3-Aminosulfonyl-5-N-butylamino-4-phenoxybenzamide]: the “Decrease in CSD events” value in the assay on Rat (300 mg/kg, co-administered general metabolic inhibitor (NS)) was 32% decrease in CSD events at. In addition, in the assay on adult mice (C57/B16), the “Cumulative duration of hippocampal discharges” value was “decreased”; the “Number of hippocampal discharges” value is given as “decreased”; the “Significant decrease” value is recorded as “Dose-response relationship”.

`CCCCNc1cc(C(=O)N(C)CCCN(C)C)cc(S(N)(=O)=O)c1Oc1ccccc1` [NTP-2026, N-(3-(Dimethylamino)propyl)-N-methyl 3-Aminosulfonyl-5-N-butylamino-4-phenoxybenzamide]: the “Decrease in CSD events” value in the assay with Rat (10-75 mg/kg, p < 0.05) was “CSD events (~30-40%) at 10-75”. The “Diuresis as measured by increased urine output and Na+/K+ excretion” value in assay [1] was “No diuresis as measured by increased urine output and Na+/K+”. In the assay on adult mice (C57/B16), the “Cumulative duration of hippocampal discharges” value is on record as “decreased”; the “Number of hippocampal discharges” value is listed as “decreased”; the “Suppression of discharges through 80 minutes post-dose” value is on record as 50 mg/kg, near complete suppression of; the “Significant decrease” value is given as “Dose-response relationship”.
